Experimental findings from PMC12488667, “Orodispersible films containing chestnut shell phenolics for buccal delivery: a preclinical approach for oral mucositis prevention” (Frontiers in Medical Technology, 2025) are described below.

Structures are written as SMILES. Marks after values point to notes of the source that are not given here.

For one data set, the system named is TR146 cells. Nature of the data set: In vitro permeation, buccal model. Type of data set: in vitro ADME, human. Here is the method:
The in vitro permeability of the bioactive compounds present in OFs (n = 9) was determined using a co-culture model composed of TR146 ([31]). The extract and the CS-loaded OFs were added to the apical side of the model as a stock solution. […] The Transepithelial Electrical Resistance (TEER) of the model was evaluated before, during, and at the end of the permeability assay using an EVOM Epithelial Volthometer equipped with a chopstick electrode (World Precision Instruments, Sarasota, FL, USA).
(§1) The identification and quantification of the phenolic compounds present in the extract and the OFs, as well as the compounds that permeated from the OFs through in vitro and ex vivo assays, were conducted using an LC-ESI-LTQ-Orbitrap-HRMS equipment with an Accela chromatograph (Thermo Scientific, Hemel Hempstead, UK), a photodiode array detector, a quaternary pump, and a temperature-controlled autosampler coupled to a high-resolution LTQ Orbitrap Velos mass spectrometer (Thermo Scientific, Hemel Hempstead, UK) with an ESI source in negative mode ([33], [34]). The system was controlled using the Xcalibur v3.0 software (ThermoFisher Scientific, Hemel Hempstead, UK). Elution was performed on an Acquity™ UPLC® BEH C18 Column (2.1 × 100 mm, i.d., 1.7 µm particle size, Waters Corporation, Wexford, Ireland) maintained at 30°C.
(§2) Gradient elution was performed with water (A) and acetonitrile (B), both with 0.1% formic acid, with a flow rate and injection volume of 450 µl/min and 5 µl, respectively. The solvent gradient (v/v) of B [t (min), %B] was set as follows: (0, 0), (2, 0), (4, 30), (8, 100), (10, 100), (11, 0), and (14, 0). The samples were analyzed in the full scan mode at a resolving power of 30,000 and m/z 600. Data-dependent MS/MS events were acquired at a resolution of 15,000. Most intense ions were detected via the FTMS mode-triggered data-dependent acquisition mode. Ions that were not sufficiently intense for a data-dependent scan were explored in MSn mode. Precursors were fragmented by collision-induced dissociation using a C-trap with a normalized collision energy (35 V) and an activation time of 10 ms. […] Compounds whose theoretical [M–H]^− values exceeded the MS¹ acquisition range (m/z 100–600) were annotated based on characteristic MSⁿ fragment ions detected within the scan window.

The nature of data set [1]: Ex vivo permeation, Franz cells. The format is in vitro ADME, porcine. Here is the method: Porcine buccal mucosa was used to evaluate the buccal permeation of the phenolic compounds in the extract and the CS-loaded OFs (n = 9). The porcine buccal mucosa was purchased in a local butcher shop, not requiring ethical approval. A Franz cell assembly (9 mm clear jacketed Franz cell with a flat ground joint, 5 ml receptor volume, and permeation area of 0.785 cm^2; PermeGear, Inc., USA) was used. This experiment followed the methodology described by Rodrigues et al. ([32]). In the Franz apparatus, the porcine buccal mucosa was positioned with the cheek side facing the donor chamber, which contained 500 µl (1,000 μg/ml) of the CS extract or the CS-loaded OFs (two square films (2 × 2 cm) with […] of thickness were dissolved in 4 ml of artificial saliva; donor concentration was normalized to ensure equivalence between the extract solution and the film formulation). The receptor chamber was filled with 5 ml PBS, maintained at 37°C, and stirred continuously at 150 rpm. The volume was maintained through the experiments.
as §1, §2
Quantitative analysis was performed by using a validated chromatographic method ([38]).

Take `O=C(O)c1cccc(O)c1` [3-Hydroxybenzoic acid]: the “Quantification of permeated compounds” value is 1.52 ± 0.02^a mg/ml in the data set on TR146 cells (CS extract), 0.36 ± 0.03^a mg/g film in the data set with TR146 cells (CS-loaded OFs), 1.18 ± 0.1^b mg/ml in data set [1] (CS extract) and 0.09 ± 0.02^a mg/g film in data set [1] (CS-loaded OFs). The “Permeation (%)” value is 13.57 ± 0.05^a % with TR146 cells (from CS extract, 15 min); 13.06 ± 0.03^a % with TR146 cells (from CS extract, 30 min); 14.09 ± 0.01^a % with TR146 cells (from CS extract, 45 min); 17.29 ± 0.01^a % in the data set on TR146 cells (from CS extract, 60 min); 16.17 ± 0.06^a % with TR146 cells (from CS extract, 90 min); 29.12 ± 0.19^b % in the data set on TR146 cells (from CS extract, 120 min). Besides, the “Permeation (%)” value with TR146 cells (from CS extract, 180 min) is listed as 16.86 ± 0.23^a %; in the data set on TR146 cells (from CS extract, 240 min) it was 24.23 ± 0.45^b %; in data set [1] (from CS extract, 15 min), 5.91 ± 0.06^a %; in data set [1] (from CS extract, 30 min) it was 4.76 ± 0.02^a %; in data set [1] (from CS-loaded OFs, 15 min), 45.86 ± 0.03^b %; in data set [1] (from CS-loaded OFs, 30 min) it was 105.28 ± 3.37^b %.

As for `COc1cc(CC(=O)O)ccc1O` [Homovanillic acid], the “Quantification of permeated compounds” value in the data set with TR146 cells (CS extract) is 0.58 ± 0.03^a mg/ml; in the data set with TR146 cells (CS-loaded OFs), 0.41 ± 0.01^a mg/g film; in data set [1] (CS extract), 2.03 ± 0.03^a mg/ml; in data set [1] (CS-loaded OFs) it was 1.67 ± 0.03^a mg/g film. Moreover, the “Permeation (%)” value is reported as 93.51 ± 2.52^b % in the data set with TR146 cells (from CS extract, 15 min); 92.34 ± 1.55^b % with TR146 cells (from CS extract, 30 min); 92.13 ± 1.08^b % in the data set on TR146 cells (from CS extract, 45 min); 93.10 ± 0.94^b % in the data set on TR146 cells (from CS extract, 60 min); 94.47 ± 3.00^b % in the data set with TR146 cells (from CS extract, 90 min); 90.93 ± 2.74^b % with TR146 cells (from CS extract, 120 min). Besides, the “Permeation (%)” value in the data set with TR146 cells (from CS extract, 180 min) is recorded as 91.20 ± 1.73^b %; in the data set with TR146 cells (from CS extract, 240 min) it was 87.20 ± 2.06^a %; in the data set on TR146 cells (from CS extract, 240 min, listed as homovanillic acid), 87.20%; with TR146 cells (from CS-loaded OFs, 15 min), 106.01 ± 1.46^a %; in the data set on TR146 cells (from CS-loaded OFs, 30 min) it was 104.89 ± 1.08^a %; in the data set with TR146 cells (from CS-loaded OFs, 45 min), 105.41 ± 0.99^a %. Also, the “Permeation (%)” value in the data set on TR146 cells (from CS-loaded OFs, 60 min) is 103.62 ± 2.72^a %; with TR146 cells (from CS-loaded OFs, 90 min), 105.25 ± 2.83^a %; in the data set on TR146 cells (from CS-loaded OFs, 120 min) it was 109.09 ± 1.97^a %; with TR146 cells (from CS-loaded OFs, 180 min) it was 106.07 ± 2.67^a %; in the data set on TR146 cells (from CS-loaded OFs, 240 min), 110.05 ± 3.61^a %; with TR146 cells (from CS-loaded OFs, 240 min, listed as homovanillic acid), 110.05%. Besides, the “Permeation (%)” value in data set [1] (from CS extract, 15 min) was 99.88 ± 2.79^a %; in data set [1] (from CS extract, 30 min), 100.53 ± 3.72^a %.

For the compound `O=C(O)[C@]1(O)C[C@@H](O)[C@@H](O)[C@H](O)C1` [Quinic acid], the “Quantification of permeated compounds” value is 1.02 ± 0.02^b mg/ml in data set [1] (CS extract) and 0.39 ± 0.01^a mg/g film in data set [1] (CS-loaded OFs). Further, the “Permeation (%)” value in data set [1] (from CS extract, 15 min) is listed as 29.36 ± 1.68^a %; in data set [1] (from CS extract, 30 min), 28.33 ± 1.16^a %; in data set [1] (from CS-loaded OFs, 15 min), 70.71 ± 1.52^b %; in data set [1] (from CS-loaded OFs, 30 min) it was 74.31 ± 1.78^b %.

With `O=C(O)CCCCCCCCCC(=O)O` [Undecanedioic acid], the “Quantification of permeated compounds” value in data set [1] (CS extract) is on record as 23.93 ± 1.12^a mg/ml; in data set [1] (CS-loaded OFs), 23.67 ± 5.00^a mg/g film. The “Permeation (%)” value in data set [1] (from CS extract, 15 min) is listed as 85.64 ± 4.12^a %; in data set [1] (from CS extract, 30 min), 86.86 ± 3.52^a %.

As for `O=c1[nH]c(=O)c2[nH]cnc2[nH]1` [Xanthine], the “Permeation (%)” value in data set [1] (pig, 15 min, 1000 μg/ml) is 6.94 ± 0.02^a %; in data set [1] (pig, 30 min, 1000 μg/ml), 6.48 ± 0.02^a %.
